Results taken from PMC11413503, “SCR‐7952, a highly selective MAT2A inhibitor, demonstrates synergistic antitumor activities in combination with the S‐adenosylmethionine‐competitive or the methylthioadenosine‐cooperative protein arginine methyltransferase 5 inhibitors in methylthioadenosine phosphorylase‐deleted tumors” (MedComm, 2024).

What was measured:
DRD1 = DRD1 (Homo sapiens, UniProt P21728); assay: Mini-profiling panel, GPCR; format: cell-based
Procedure: (§1) Further insight into selectivity was evaluated in a functional panel of 47 representative targets closely related to human life activities, including G protein‐coupled receptors, transporters, ion channels, kinases, nuclear hormone receptor targets, and nonkinase enzymes (Table S3).

OPRM1 = OPRM1 (Homo sapiens, UniProt P35372); assay: Mini-profiling panel, GPCR; format: cell-based
Sequence of OPRM1 (P35372 whole entry, species assumed): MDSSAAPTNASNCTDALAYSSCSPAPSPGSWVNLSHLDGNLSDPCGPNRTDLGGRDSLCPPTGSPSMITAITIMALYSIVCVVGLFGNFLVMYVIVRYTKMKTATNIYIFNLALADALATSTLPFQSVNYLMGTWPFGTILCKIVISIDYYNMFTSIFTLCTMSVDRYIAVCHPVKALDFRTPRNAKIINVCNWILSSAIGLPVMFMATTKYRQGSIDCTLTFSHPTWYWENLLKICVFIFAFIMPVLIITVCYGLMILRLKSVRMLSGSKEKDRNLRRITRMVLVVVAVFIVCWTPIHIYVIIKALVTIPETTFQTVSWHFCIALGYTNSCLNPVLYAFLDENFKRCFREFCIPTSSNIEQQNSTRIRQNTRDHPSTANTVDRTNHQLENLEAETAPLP
Procedure: as §1

CHRM3 = CHRM3 (Homo sapiens, UniProt P20309); assay: Mini-profiling panel, GPCR; format: cell-based
Procedure: as §1

HTR2A = HTR2A (Homo sapiens, UniProt P28223); assay: Mini-profiling panel, GPCR; format: cell-based
Procedure: as §1

HTR1A = HTR1A (Homo sapiens, UniProt P08908); assay: Mini-profiling panel, GPCR; format: cell-based
Sequence of HTR1A (P08908 whole entry, species assumed): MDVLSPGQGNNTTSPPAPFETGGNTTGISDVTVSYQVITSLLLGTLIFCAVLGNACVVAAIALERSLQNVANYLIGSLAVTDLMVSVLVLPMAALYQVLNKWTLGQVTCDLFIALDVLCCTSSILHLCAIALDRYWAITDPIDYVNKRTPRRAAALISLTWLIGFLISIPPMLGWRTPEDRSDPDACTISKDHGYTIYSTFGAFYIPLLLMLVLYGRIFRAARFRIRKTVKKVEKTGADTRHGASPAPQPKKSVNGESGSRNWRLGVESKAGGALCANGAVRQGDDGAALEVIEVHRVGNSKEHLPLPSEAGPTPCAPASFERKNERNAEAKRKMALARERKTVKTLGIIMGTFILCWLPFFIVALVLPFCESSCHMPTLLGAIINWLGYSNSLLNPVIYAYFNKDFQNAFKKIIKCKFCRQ
Procedure: as §1

CNR1 = CNR1 (Homo sapiens, UniProt P21554); assay: Mini-profiling panel, GPCR; format: cell-based
Procedure: as §1

CNR2 = CNR2 (Homo sapiens, UniProt P34972); assay: Mini-profiling panel, GPCR; format: cell-based
Sequence of CNR2 (P34972 whole entry, species assumed): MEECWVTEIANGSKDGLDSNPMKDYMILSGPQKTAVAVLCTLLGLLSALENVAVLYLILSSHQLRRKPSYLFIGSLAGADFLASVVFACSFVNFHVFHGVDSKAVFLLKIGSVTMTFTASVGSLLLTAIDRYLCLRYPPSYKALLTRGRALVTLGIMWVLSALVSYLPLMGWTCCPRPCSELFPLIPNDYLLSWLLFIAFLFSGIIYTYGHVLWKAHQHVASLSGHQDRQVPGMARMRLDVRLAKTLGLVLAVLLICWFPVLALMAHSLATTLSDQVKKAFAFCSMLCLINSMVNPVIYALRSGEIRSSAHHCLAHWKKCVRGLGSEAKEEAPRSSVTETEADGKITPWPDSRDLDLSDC
Procedure: as §1

HTR1B = HTR1B (Homo sapiens, UniProt P28222); assay: Mini-profiling panel, GPCR; format: cell-based
Procedure: as §1

OPRD1 = OPRD1 (Homo sapiens, UniProt P41143); assay: Mini-profiling panel, GPCR; format: cell-based
Procedure: as §1

ADRA2A = ADRA2A (Homo sapiens, UniProt P08913); assay: Mini-profiling panel, GPCR; format: cell-based
Sequence of ADRA2A (P08913 whole entry, species assumed): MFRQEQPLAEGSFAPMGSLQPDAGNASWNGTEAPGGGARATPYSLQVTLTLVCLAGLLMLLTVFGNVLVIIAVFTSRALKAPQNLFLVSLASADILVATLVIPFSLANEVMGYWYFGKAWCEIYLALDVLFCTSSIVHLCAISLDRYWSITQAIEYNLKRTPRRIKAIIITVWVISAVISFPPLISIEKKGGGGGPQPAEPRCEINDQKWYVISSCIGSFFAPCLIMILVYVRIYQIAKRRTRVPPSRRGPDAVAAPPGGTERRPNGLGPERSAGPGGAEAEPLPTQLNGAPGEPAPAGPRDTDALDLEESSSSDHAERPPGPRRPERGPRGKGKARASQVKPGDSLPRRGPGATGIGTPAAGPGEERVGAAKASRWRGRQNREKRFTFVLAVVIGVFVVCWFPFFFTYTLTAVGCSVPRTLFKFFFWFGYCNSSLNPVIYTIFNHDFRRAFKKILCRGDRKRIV
Procedure: as §1

OPRK1 = OPRK1 (Homo sapiens, UniProt P41145); assay: Mini-profiling panel, GPCR; format: cell-based
Procedure: as §1

CHRM2 = CHRM2 (Homo sapiens, UniProt P08172); assay: Mini-profiling panel, GPCR; format: cell-based
Sequence of CHRM2 (P08172 whole entry, species assumed): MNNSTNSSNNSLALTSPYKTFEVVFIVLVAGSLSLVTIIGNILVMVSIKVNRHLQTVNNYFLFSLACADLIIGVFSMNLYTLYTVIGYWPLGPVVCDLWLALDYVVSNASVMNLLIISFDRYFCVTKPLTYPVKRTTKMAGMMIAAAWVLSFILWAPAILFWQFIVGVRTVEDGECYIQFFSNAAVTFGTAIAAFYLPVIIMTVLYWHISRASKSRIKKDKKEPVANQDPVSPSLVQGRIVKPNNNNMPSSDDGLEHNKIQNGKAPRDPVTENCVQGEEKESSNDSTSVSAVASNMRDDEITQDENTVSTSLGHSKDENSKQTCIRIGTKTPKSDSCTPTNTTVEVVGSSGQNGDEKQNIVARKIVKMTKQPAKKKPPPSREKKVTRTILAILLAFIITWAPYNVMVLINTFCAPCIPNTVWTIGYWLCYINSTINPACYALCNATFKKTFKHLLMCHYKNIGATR
Procedure: as §1

ADRA1A = ADRA1A (Homo sapiens, UniProt P35348); assay: Mini-profiling panel, GPCR; format: cell-based
Sequence of ADRA1A (P35348 whole entry): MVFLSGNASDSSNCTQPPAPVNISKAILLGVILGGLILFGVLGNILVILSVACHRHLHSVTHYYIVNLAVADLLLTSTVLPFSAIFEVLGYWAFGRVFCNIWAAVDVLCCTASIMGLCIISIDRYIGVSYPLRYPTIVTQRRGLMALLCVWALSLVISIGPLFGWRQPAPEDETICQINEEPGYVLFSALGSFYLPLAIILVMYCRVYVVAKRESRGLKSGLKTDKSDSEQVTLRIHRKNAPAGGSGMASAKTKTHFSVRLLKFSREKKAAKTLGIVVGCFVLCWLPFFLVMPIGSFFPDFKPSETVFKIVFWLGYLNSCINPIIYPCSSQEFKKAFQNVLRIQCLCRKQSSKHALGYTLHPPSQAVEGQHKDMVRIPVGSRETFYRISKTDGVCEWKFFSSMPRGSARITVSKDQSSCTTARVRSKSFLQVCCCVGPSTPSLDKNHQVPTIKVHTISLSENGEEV
Procedure: as §1

[1] = Functional panel of 47 representative targets; details: at 10 µM
[2] = Plasma pharmacokinetics after multiple administration in xenograft mice; format: in vivo; details: SCR-7952 1.0 mg/kg
HRH2 = HRH2 (Homo sapiens, UniProt P25021); assay: Mini-profiling panel, GPCR; format: cell-based; details: GPCR Targets
CAV1.2 = CAV1.2 (Homo sapiens, UniProt Q13936); assay: cell-based
EDNRA = EDNRA (Homo sapiens, UniProt P25101); assay: Mini-profiling panel, GPCR; format: cell-based; details: GPCR Targets
Sequence of EDNRA (P25101 21-427, species assumed): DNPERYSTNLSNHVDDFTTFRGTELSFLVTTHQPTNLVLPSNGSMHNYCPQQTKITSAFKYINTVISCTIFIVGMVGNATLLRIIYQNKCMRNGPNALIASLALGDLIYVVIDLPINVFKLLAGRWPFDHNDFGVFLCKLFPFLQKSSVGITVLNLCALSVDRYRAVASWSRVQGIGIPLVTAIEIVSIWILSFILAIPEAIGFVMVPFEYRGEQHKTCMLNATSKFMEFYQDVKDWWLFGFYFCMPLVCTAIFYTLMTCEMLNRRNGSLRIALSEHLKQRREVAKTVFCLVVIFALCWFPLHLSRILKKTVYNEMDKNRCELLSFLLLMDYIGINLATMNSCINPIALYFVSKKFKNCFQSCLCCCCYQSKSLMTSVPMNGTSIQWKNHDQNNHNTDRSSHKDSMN

COX1 = COX1 (Homo sapiens, UniProt P23219); assay: Mini-profiling panel, non-kinase enzyme; format: biochemical; details: Non-Kinase Enzymes; read-out: COX1 Inhibitor IC50
DAT = DAT (Homo sapiens, UniProt Q01959); assay: Mini-profiling panel, transporter; format: cell-based
Procedure: as §1

SERT = SERT (Homo sapiens, UniProt P31645); assay: Mini-profiling panel, transporter; format: cell-based
Procedure: as §1

NET = NET (Homo sapiens, UniProt P23975); assay: Mini-profiling panel, transporter; format: cell-based
Procedure: as §1

FANCA = assay: RT-PCR of FANCA and DI-containing transcripts; format: cell-based; details: 72 h
AVPR1A = AVPR1A (Homo sapiens, UniProt P37288); assay: Mini-profiling panel, GPCR; format: cell-based; details: GPCR Targets
Sequence of AVPR1A (P37288 whole entry, species assumed): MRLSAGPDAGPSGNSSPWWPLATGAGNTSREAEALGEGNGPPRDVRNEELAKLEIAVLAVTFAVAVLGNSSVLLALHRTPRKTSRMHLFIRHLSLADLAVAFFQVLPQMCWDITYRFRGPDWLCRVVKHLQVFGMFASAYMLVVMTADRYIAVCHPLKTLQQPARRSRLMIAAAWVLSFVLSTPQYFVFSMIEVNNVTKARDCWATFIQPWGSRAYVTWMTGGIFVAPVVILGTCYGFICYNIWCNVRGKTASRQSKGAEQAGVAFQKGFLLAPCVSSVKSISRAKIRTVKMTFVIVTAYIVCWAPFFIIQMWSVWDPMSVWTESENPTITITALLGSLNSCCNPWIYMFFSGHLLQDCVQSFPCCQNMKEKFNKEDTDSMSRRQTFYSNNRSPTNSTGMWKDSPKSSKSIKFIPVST

AR = AR (Homo sapiens, UniProt P10275); assay: Mini-profiling panel, nuclear hormone receptor; format: cell-based
Sequence of AR (P10275 whole entry): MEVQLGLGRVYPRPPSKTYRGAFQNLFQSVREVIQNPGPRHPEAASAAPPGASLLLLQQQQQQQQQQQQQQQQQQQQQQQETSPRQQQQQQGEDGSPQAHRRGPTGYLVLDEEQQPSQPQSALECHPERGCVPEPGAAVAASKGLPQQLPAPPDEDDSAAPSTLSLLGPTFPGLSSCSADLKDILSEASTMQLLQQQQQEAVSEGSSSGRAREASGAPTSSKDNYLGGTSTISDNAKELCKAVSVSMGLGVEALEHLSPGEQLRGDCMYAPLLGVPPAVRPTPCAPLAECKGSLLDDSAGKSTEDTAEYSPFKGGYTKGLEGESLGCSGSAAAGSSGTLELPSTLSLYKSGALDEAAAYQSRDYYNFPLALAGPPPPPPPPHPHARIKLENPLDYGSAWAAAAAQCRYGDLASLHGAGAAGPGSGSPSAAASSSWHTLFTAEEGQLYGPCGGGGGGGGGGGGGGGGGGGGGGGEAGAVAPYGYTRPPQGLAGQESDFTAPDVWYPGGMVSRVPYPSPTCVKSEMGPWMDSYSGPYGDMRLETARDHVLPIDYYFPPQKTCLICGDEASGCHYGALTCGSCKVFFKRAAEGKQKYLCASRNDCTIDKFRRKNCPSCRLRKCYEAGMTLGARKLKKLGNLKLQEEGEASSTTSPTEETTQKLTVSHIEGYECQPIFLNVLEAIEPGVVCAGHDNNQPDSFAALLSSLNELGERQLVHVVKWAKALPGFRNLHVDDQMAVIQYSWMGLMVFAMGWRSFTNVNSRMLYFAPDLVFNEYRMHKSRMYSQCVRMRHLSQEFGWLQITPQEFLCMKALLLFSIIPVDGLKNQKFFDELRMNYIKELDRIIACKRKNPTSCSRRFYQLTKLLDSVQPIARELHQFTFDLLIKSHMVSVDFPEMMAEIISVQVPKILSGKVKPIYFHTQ
Procedure: as §1

HCT116 MTAP−/− cells = assay: Combination proliferation assay with PRMT5 inhibitors (Bliss model); format: cell-based; details: 8 days
Procedure: Cells were plated in 96‐well cell culture plates and allowed to attach overnight at 37°C in 5% CO2. […] The final concentration of DMSO was 0.1% in media. Cell proliferation was measured using CellTiter‐Glo Cell Viability Assay (Promega). The IC50 values were calculated using the GraphPad Prism 9. Drug combination effects were analyzed using Combenefit software.[45]

HCT116 MTAP−/− xenograft = assay: Xenograft combination treatment study; format: in vivo, mice; details: SCR-7952 0.3 mg/kg alone
Procedure: Subcutaneous injections of HCT116 MTAP ^−/− cells were performed (5 × 10^6 cells in 100 µL) into Nu/Nu female mice. Mice were observed daily for the development of tumors. Six days after tumor implantation, mice were randomly distributed into different groups. SCR‐7952, AG‐270, JNJ‐64619178, or vehicle (water with 5% N‐methylpyrrolidone and 10% solutol HS‐15) were daily administrated by oral gavage. Tumor volumes and body weights were recorded three times per week. Tumor volumes were measured in two dimensions using a caliper, and the volume was expressed in mm^3 using the formula: V = (L × W × W)/2, where V is tumor volume, L is tumor length (the longest tumor dimension), and W is tumor width (perpendicular to L). The tumor growth inhibition rate (TGI%) of each dosing group was calculated according to the following formula: %TGI = (1 − (V t(treatment group) − V 0(treatment group))/(V t(vehicle group) − V 0(vehicle group))) × 100%, where V t is average tumor volume of a dosing group on a specific day, V 0 is average tumor volume of a dosing group on the initial day. At the end of the study, plasma and tumor tissues were collected and stored at −80°C for further measurement.

Sequence of DRD1 (P21728 whole entry, species assumed): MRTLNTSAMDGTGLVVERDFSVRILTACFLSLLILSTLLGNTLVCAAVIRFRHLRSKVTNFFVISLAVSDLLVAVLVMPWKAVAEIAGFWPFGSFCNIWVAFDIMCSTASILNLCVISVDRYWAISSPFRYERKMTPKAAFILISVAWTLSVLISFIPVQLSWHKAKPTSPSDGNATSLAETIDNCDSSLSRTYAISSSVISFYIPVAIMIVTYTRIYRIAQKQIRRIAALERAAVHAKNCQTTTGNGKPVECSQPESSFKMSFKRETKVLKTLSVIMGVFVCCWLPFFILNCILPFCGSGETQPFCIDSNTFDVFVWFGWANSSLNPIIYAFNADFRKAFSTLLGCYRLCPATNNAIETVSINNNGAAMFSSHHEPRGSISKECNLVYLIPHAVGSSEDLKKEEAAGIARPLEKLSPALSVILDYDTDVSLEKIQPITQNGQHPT

With `Cn1cnc2c(=O)n(-c3cccnc3C3CC3)c3cc(Cl)ccc3c21` [SCR‐7952, 7‐chloro‐5‐(2‐cyclopropylpyridin‐3‐yl)‐1‐methyl‐1,5‐dihydro‐4H‐imidazo[4,5‐c]quinolin‐4‐one] the EC50 (DRD1) was > 10 µM, the IC50 (DRD1) was > 10 µM and the EC50 (OPRM1) was > 10 µM. The IC50 (OPRM1) was > 10 µM, the EC50 (CHRM3) was > 10 µM and the IC50 (CHRM3) was > 10 µM. For the same molecule, the EC50 (HTR2A) was > 10 µM, the IC50 (HTR2A) was > 10 µM and the EC50 (HTR1A) was > 10 µM. For the same molecule, the IC50 (HTR1A) was > 10 µM, the EC50 (CNR1) was > 10 µM and the IC50 (CNR1) was > 10 µM. The EC50 (CNR2) was > 10 µM, the IC50 (CNR2) was > 10 µM and the EC50 (HTR1B) was > 10 µM. The IC50 (HTR1B) was > 10 µM, the EC50 (OPRD1) was > 10 µM and the IC50 (OPRD1) was > 10 µM. For the same molecule, the EC50 (ADRA2A) was > 10 µM, the IC50 (ADRA2A) was > 10 µM and the EC50 (OPRK1) was > 10 µM. For the same molecule, the IC50 (OPRK1) was > 10 µM, the EC50 (CHRM2) was > 10 µM and the IC50 (CHRM2) was > 10 µM. The EC50 (ADRA1A) was > 10 µM, the IC50 (ADRA1A) was > 10 µM and the “agonistic or antagonistic activities on 47 targets” value [1] was “did not exhibit significant pharmacological effects”. For the same molecule, the AUC(0-t) ([2]; Nu/Nu, mouse, oral, plasma, HCT116 MTAP−/− xenograft mice, read-out: AUC0-24h total) was 15800 ng·h/mL, the AUC0-24h free drug ([2]; calculated) was 1442 ng·h/mL and the EC50 (HRH2; read-out: HRH2 Agonism EC50) was > 10 µM. For the same molecule, the IC50 (HRH2; read-out: HRH2 Antagonism IC50) was > 10 µM, the IC50 (CAV1.2) was > 10 µM and the EC50 (EDNRA; read-out: EDNRA Agonism EC50) was > 10 µM. For the same molecule, the IC50 (EDNRA; read-out: EDNRA Antagonism IC50) was > 10 µM, the IC50 (COX1) was > 10 µM and the IC50 (DAT) was > 10 µM. The IC50 (SERT) was > 10 µM, the IC50 (NET) was > 10 µM and the “expression of FANCA DI-containing transcripts” value (FANCA) was “significantly upregulated”. For the same molecule, the “total levels of FANCA mRNA” value (FANCA) was “reduced”, the EC50 (AVPR1A; read-out: AVPR1A Agonism EC50) was > 10 µM and the IC50 (AVPR1A; read-out: AVPR1A Antagonism IC50) was > 10 µM. The EC50 (AR) was > 10 µM, the IC50 (AR) was > 10 µM and the “interaction on cell growth in combination with JNJ-64619178” value (HCT116 MTAP−/− cells) was “synergistic interactions”. The “interaction on cell growth in combination with MRTX-1719” value (HCT116 MTAP−/− cells) was “synergistic interactions”, the “synergistic effect in combination with GSK3326595” value (HCT116 MTAP−/− cells) was “much weaker” and the TGI (HCT116 MTAP−/− xenograft) was 55.0%.
